Results from US20260138961A1, “MODULATORS OF MITOCHONDRIAL DNA REPLICATION” (Pretzel Therapeutics, Inc., priority 2022, published 2026).

Target: T1, POLγA:R309C (Homo sapiens, UniProt P54098, R309C)
T1 sequence (P54098 1-1239 R309C): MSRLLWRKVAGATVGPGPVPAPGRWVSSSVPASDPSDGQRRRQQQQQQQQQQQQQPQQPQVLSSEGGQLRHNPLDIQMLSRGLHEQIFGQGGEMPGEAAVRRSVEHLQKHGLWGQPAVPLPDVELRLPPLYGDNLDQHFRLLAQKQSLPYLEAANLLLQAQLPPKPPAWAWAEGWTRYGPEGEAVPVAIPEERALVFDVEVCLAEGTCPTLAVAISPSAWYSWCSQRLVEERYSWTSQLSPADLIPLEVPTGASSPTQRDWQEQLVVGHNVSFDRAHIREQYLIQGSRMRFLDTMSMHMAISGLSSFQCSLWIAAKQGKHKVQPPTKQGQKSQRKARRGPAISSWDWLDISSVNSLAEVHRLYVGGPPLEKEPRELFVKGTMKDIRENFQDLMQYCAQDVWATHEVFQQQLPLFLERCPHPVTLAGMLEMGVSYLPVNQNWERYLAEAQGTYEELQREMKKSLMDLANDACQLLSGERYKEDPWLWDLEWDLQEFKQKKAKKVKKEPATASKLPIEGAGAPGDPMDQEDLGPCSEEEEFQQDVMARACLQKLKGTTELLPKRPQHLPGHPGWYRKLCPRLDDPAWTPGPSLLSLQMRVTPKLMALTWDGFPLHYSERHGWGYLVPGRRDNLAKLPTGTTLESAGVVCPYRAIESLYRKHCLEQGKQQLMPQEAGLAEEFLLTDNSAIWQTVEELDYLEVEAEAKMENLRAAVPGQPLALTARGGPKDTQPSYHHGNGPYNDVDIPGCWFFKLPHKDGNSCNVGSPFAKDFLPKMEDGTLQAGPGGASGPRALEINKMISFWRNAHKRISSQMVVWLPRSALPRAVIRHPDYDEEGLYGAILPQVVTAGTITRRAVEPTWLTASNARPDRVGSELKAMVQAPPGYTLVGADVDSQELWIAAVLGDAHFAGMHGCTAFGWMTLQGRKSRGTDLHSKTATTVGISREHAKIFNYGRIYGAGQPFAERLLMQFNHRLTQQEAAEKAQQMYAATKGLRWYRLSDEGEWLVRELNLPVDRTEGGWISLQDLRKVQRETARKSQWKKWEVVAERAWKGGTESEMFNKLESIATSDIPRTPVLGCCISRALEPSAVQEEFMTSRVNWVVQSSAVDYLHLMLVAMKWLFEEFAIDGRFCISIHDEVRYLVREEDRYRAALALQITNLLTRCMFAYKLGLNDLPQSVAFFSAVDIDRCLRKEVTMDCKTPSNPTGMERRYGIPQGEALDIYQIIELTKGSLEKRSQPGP
T1 sequence (Q9UHN1 1-485 partner): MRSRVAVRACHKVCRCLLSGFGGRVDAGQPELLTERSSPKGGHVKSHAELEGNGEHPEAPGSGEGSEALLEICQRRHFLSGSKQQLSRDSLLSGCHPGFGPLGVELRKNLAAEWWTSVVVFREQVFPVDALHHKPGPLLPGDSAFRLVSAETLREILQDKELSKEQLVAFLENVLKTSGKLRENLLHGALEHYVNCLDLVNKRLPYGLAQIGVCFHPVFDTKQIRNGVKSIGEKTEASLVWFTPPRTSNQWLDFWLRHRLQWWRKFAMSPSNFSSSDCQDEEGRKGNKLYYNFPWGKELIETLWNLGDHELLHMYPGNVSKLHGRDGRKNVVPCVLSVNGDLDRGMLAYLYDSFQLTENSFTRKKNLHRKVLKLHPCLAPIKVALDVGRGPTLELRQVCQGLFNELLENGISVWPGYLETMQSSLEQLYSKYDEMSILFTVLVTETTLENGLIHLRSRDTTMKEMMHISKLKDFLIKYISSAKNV
Assay: DNA polymerization assay, POLγA:R309C mutant
Assay type: biochemical
Conditions: stimulation of polymerase activity, primed M13mp18 ssDNA, 37° C. 2 hours
Procedure: DNA Polymerization Assay to Monitor Effects on Human Wildtype POLγ and Four Disease-Causing Mutant Variants of Human POLγ.
The ability of small molecules to stimulate the polymerase activity of POLγ was analyzed in a quantitative fluorescence SYBR Green I assay with fluorescence intensity (FI) readout.
In the presence of dNTPs, wild type human POLγ and mutant derivatives thereof were incubated with single-stranded, circular M13mp18 ssDNA hybridized to a short DNA oligonucleotide that functions as a primer for initiation of DNA synthesis. POLγ and mutant derivatives thereof will extend the primer and use the M13mp18 molecule as a template to synthesize long stretches of double-stranded DNA. SYBR Green I, which is a double-stranded DNA-binding dye, was used to quantify formation of double-stranded DNA in the reaction. When bound to double-stranded DNA, SYBR Green I fluorescence increases by up to 100-fold.
The assay was performed in the 384-well plate format. Upon addition of compounds, changes in double-stranded DNA synthesis activity can be monitored by following effects on fluorescent intensity.
The reactions also contained the accessory POLγB subunit, and the human mitochondrial single-stranded DNA binding protein (mtSSB).
The DNA template mixture used in the assay contained 0.5 nM primed M13 mp18 ssDNA, 400 nM mtSSB, 0.1 mM Tris-HCl (pH 8.0), 0.1 mM dNTP, 10 mM MgCl2, 0.1 mg/mL BSA, 1 mM TCEP solution, and 0.02% Triton X-100. The DNA template mixture for the wild type protein contained either 100 μM dNTP, 1 μM dNTP, or 0.1 μM dNTP, designated in Table 2 as 100 μM, 1 μM, and 0.1 μM, respectfully.
Microplates with compounds (0.1 μL in each well) to be tested in the assay were prepared from 10 mM compound stocks in 100% DMSO, and equal amounts of DMSO without any compound were added to positive and negative control wells.
The protein mixture was dispensed (5 μL into each well) into compound plates and incubated at 37° C. for 15 minutes. After incubation, 5 μL of the DNA template mixture was dispensed into each well. The plates were then incubated at 37° C. for 2 hours.
During incubation, a combined stop buffer and detection reagent solution was prepared. The buffer contained 25 mM EDTA (pH 8.0), 0.02% Triton X-100, and SYBR Green I [Invitrogen] diluted 10,000× (for fluorescent readout). EDTA will stop the enzymatic reaction by chelating magnesium ions.

| AC50 [µM] | Structure (SMILES) |
| --- | --- |
| 0.6 | Cc1cc(S(=O)(=O)Nc2csc(-c3ccccc3)n2)c(C)cc1Cl [Example 81, 4-chloro-2,5-dimethyl-N-(2-phenylthiazol-4-yl)benzenesulfonamide] |
| > 100 | Cc1csc(-c2ccccc2NS(=O)(=O)c2cc(C)c(Cl)cc2C)n1 [Example 80, 4-chloro-2,5-dimethyl-N-(2-(4-methylthiazol-2-yl)phenyl)benzenesulfonamide] |
| 1 | Cc1nc2ccc(NS(=O)(=O)c3cc(C)c(Cl)cc3C)cc2s1 [Example 73, 4-chloro-2,5-dimethyl-N-(2-methylbenzo[d]thiazol-6-yl)benzenesulfonamide] |

Second part, the compound before the results:

| Structure (SMILES) | AC50 [µM] |
| --- | --- |
| Cc1cc(S(=O)(=O)Nc2ccc3ccn(C)c3c2)c(C)cc1Cl [Example 72, 4-chloro-2,5-dimethyl-N-(1-methyl-1H-indol-6-yl)benzenesulfonamide] | 30 |
| Cc1cc(S(=O)(=O)Nc2cccc(-c3ncc(CN(C)C)s3)c2)c(C)cc1Cl [Example 87, 4-chloro-N-(3-(5-((dimethylamino)methyl)thiazol-2-yl)phenyl)-2,5-dimethylbenzenesulfonamide] | 6 |
| Cc1cc(S(=O)(=O)Nc2cccc(-c3ncc(CO)s3)c2)c(C)cc1Cl [Example 89, 4-chloro-N-(3-(5-(hydroxymethyl)thiazol-2-yl)phenyl)-2,5-dimethylbenzenesulfonamide] | 4 |
| Cc1cc(S(=O)(=O)Nc2cccc(-c3ncc(C4CC4)s3)c2)c(C)cc1Cl [Example 76, 4-chloro-N-(3-(5-cyclopropylthiazol-2-yl)phenyl)-2,5-dimethylbenzenesulfonamide] | 6 |
